We go through five compounds from patent US20260007639A1, “COMPOUNDS FOR THE TREATMENT OF NEUROMUSCULAR DISORDERS” (NMD PHARMA A/S, priority 2017, published 2026).

One test concerns rat soleus muscles. The experiment in a line: Recovery of force in isolated rat soleus nerve-muscle preparations after 115 nM tubocurarine, 50 μM compound (Table 8). The note with it: 40 mins exposure. The method in brief:
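Soleus nerve-muscle preparations from 4-5 wk old rats, force evoked by motor-nerve stimulation. After 90 min in 115 nM tubocurarine, 50 μM compound added with tubocurarine still present; force recovery after 40 min expressed as percentage of pre-tubocurarine force.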

Another test relates to female Lewis rats. Kind of test: In situ isometric hindlimb force in anaesthetised rats with neuromuscular transmission partially inhibited by Cisatracurium. It is filed as in vivo, rat. The following applies: 80 Hz stimulation, Cisatracurium infusion. On the procedure:
Isometric hindlimb force was measured in 12-week old female Lewis rats in the presence and absence of compound.
Rats were placed under anesthesia with isoflurane (2-4%), intubated and subsequently connected to a micro ventilator (Microvent 1, Hallowell EMC, US). Two stimulation electrodes were inserted through the skin to stimulate the sciatic nerve. A small incision was made proximal to the ankle, to expose the Achilles tendon, which was tied by cotton string, and connected to a force transducer (Fort250, World Precision Instruments) with adjustable position (Vernier control). The Achilles tendon was then cut distal to the attached cotton string. The rat was placed on a heated pad, and to prevent movement artefacts from contraction of the ankle dorsiflexors, the foot was fixated by tape on a footplate.
Muscle contractile properties were assessed by applying an electrical current (under supramaximal voltage conditions) to the nerve and recording the force generated by the muscle. The muscle was stretched until maximal force was obtained, when assessed by 2 Hz stimulation. Isometric force was measured every 30 seconds at 12 Hz (Twitch), 10 pulses, and at every 5 minutes at 80 Hz (Tetanic) for 1 second (80 pulses). This stimulation pattern was employed throughout the experiment, expect in few cases where 80 Hz stimulation was replaced by 12 Hz (10 pulses). […] When the level of neuromuscular inhibition was stable, the test article was injected i.v. at the chosen concentration. The effect of test article was assessed on its ability to increase force generated from the stimulation pattern applied. The effect was assessed in the ability to increase force per se (tetanic, 80 Hz, stimulation), and the ratio between individual twitch peaks (12 Hz stimulation). The effect was monitored for at least 1 hour after injection of test article. In addition, the time from injection of test article to maximal effect on force (both twitch and tetanic) was noted and the time for the effect to disappear (return to baseline), if possible. When appropriate the infusion of neuromuscular blocking agent was ceased, with the stimulation pattern continued, and the return of force to control levels was monitored. Animals were sacrificed by cervical dislocation while still fully sedated.

`C[C@H](Oc1ccc(Cl)cc1-c1ccno1)C(=O)O` [Compound A-26, (2S)-2-[4-chloro-2-(1,2-oxazol-5-yl)phenoxy]propanoic acid]: the “Point increase (%) of initial force that was restored” value (“Point increase (%)” for short) in the test with rat soleus muscles is on record as 20%. Moreover, in the test with female Lewis rats (40.0 mg/kg i.v.), the “average increase in tetanic force” value is given as 33.4%.
On to `O=C(O)[C@H](CF)Oc1ccc(Br)cc1-c1ccon1` [Compound A-31, (2R)-2-[4-bromo-2-(1,2-oxazol-3-yl)phenoxy]-3-fluoropropanoic acid], for which the “Point increase (%)” value in the test on rat soleus muscles was 36%. Further, in the test with female Lewis rats (40.0 mg/kg i.v.), the “average increase in tetanic force” value is on record as 34.1%.
For the compound `C[C@H](Oc1cc(F)c(Br)cc1-c1ccon1)C(=O)O` [Compound A-44, (2S)-2-[4-bromo-5-fluoro-2-(1,2-oxazol-3-yl)phenoxy]propanoic acid], the “Point increase (%)” value in the test on rat soleus muscles is 27%. In the test with female Lewis rats (24.6 mg/kg i.v.), the “average increase in tetanic force” value is 46.2%.
For `C[C@H](Oc1ccc(Br)cc1-c1csnn1)C(=O)O` [Compound A-59, (2S)-2-[4-bromo-2-(1,2,3-thiadiazol-4-yl)phenoxy]propanoic acid], in the test on rat soleus muscles, the “Point increase (%)” value was found to be 20%. Moreover, the “average increase in tetanic force” value in the test with female Lewis rats (49.2 mg/kg i.v.) is 42.8%.
Take `O=C(O)COc1ccc(Br)cc1-c1ccon1` [Compound A-64, 2-[4-bromo-2-(1,2-oxazol-3-yl)phenoxy]acetic acid]: in the test with rat soleus muscles, the “Point increase (%)” value was found to be 25%. Besides, the “average increase in tetanic force” value in the test on female Lewis rats (44.8 mg/kg i.v.) is recorded as 57.7%.
